Legend:
[1] = test system: acyl coenzyme A: cholesterol acyltransferase (ACAT); test: Test for ACAT inhibitory activity (microsome fraction prepared from rabbit liver); assay type: biochemical; details: 10^-6 M, 37° C., 10 minutes
Description: Test for ACAT inhibitory activity The test for ACAT inhibitory activity was performed by a modified method of the method of Brecher et al. Biochim. Biophys. […] The radioactivity of the cholesterol ester spot was determined by a liquid scintillation counter. The radio-activity for each test compound was calculated by the difference between the radioactivity with the microsome fraction and the radioactivity without the microsome fraction. The radioactivity of control was determined in a similar manner without any test compound.

[2] = test system: male ddy strain mice; test: Test for acute toxicity (minimum lethal dose, oral); assay type: in vivo; details: mortality observed seven days after administration
Description: Groups of 3 male ddy strain mice weighing 20±1 g were used. The test compounds were orally administered. Seven days after administration, the mortality was observed and the minimum lethal dose (MLD) was determined.

[3] = test system: serum cholesterol level; test: Inhibition effect on serum cholesterol level in hamster with dietary hyperlipemia; assay type: in vivo; details: Golden hamster, 2% cholesterol feed for 3 days; 30 mg/kg orally once a day
Description: Inhibition effect on serum cholesterol level in hamster with dietary hyperlipemia
Golden hamster (SLC, male, age of 6 weeks) was made free access to feed containing 2% cholesterol for 3 days. Each test compound was suspended in olive oil and orally administered once a day in a dose of 30 mg/kg during the feeding. (A: Test Group administered with the test compound, B: Control Group administered with olive oil only). In Group C, feed free from cholesterol was fed for 3 days. On the fourth day, blood sample was collected from the descending aorta under pentobarbital anesthesia and cholesterol level in serum was determined. The total cholesterol level in serum of each group was determined and the inhibition rate for the test compound was calculated according to the following equation. [formula]

CC(C)c1cccc(C(C)C)c1NC(=O)C1c2ccccc2COc2ccc(F)cc21 (stereo not drawn) [Compound 16, 2-Fluoro-6,11-dihydro-N-(2,6-diisopropylphenyl)dibenz[b,e]-oxepin-11-carboxamide]
Inhibiting rate(%) of ACAT [1]: 81% | Acute Toxicity (MLD), minimum lethal dose [2]: > 300 mg/kg

CC(C)c1cccc(C(C)C)c1NC(=O)C1c2ccccc2COc2cc(Br)ccc21 (stereo not drawn) [Compound 29, 3-Bromo-6,11-dihydro-N-(2,6-diisopropylphenyl)dibenz[b,e]-oxepin-11-carboxamide]
Inhibiting rate(%) of ACAT [1]: 86% | Acute Toxicity (MLD), minimum lethal dose [2]: > 300 mg/kg

CCc1cccc(CC)c1NC(=O)C1c2ccccc2COc2ccc(C)cc21 (stereo not drawn) [Compound 3, N-(2,6-Diethylphenyl) -6,11-dihydro-2-methyldibenz[b,e]-oxepin-11-carboxamide]
Inhibiting rate(%) of ACAT [1]: 77% | Acute Toxicity (MLD), minimum lethal dose [2]: > 300 mg/kg

O=C(Nc1c(Cl)cccc1Cl)C1c2ccccc2COc2cc(Br)ccc21 (stereo not drawn) [Compound 28, 3-Bromo-N-(2,6-dichlorophenyl)-6,11-dihydrodibenz[b,e]oxepin-11-carboxamide]
Inhibiting rate(%) of ACAT [1]: 52% | Acute Toxicity (MLD), minimum lethal dose [2]: > 300 mg/kg

CC(C)c1cccc(C(C)C)c1NC(=O)C1c2ccccc2COc2ccc(C(F)(F)F)cc21 (stereo not drawn) [Compound 20, 6,11-Dihydro-N-(2,6-diisopropylphenyl) -2-trifluoromethyldibenz[b,e]oxepin-11-carboxamide]
Inhibiting rate(%) of ACAT [1]: 84% | Inhibition Rate (%) of total cholesterol level in serum [3]: 63% | Acute Toxicity (MLD), minimum lethal dose [2]: > 300 mg/kg

CCc1cccc(CC)c1NC(=O)C1c2ccccc2COc2ccc(Br)cc21 (stereo not drawn) [Compound 27, 2-Bromo-N-(2,6-diethylphenyl)-6,11-dihydrodibenz[b,e]oxepin-11-carboxamide]
Inhibiting rate(%) of ACAT [1]: 80% | Acute Toxicity (MLD), minimum lethal dose [2]: > 300 mg/kg

Cc1ccc2c(c1)C(C(=O)Nc1c(C(C)C)cccc1C(C)C)c1ccccc1CO2 (stereo not drawn) [Compound 4, 6,11-Dihydro-N-(2,6-diisopropylphenyl)-2-methyldibenz[b,e]-oxepin-11-carboxamide]
Inhibiting rate(%) of ACAT [1]: 98% | Inhibition Rate (%) of total cholesterol level in serum [3]: 70% | Acute Toxicity (MLD), minimum lethal dose [2]: > 300 mg/kg

CC(C)c1cccc(C(C)C)c1NC(=O)C1c2ccccc2CSc2ccc(Br)cc21 (stereo not drawn) [Compound 32, 2-Bromo-6,11-dihydro-N-(2,6-diisopropylphenyl)dibenzo[b,e]-thiepin-11-carboxamide]
Inhibiting rate(%) of ACAT [1]: 88% | Inhibition Rate (%) of total cholesterol level in serum [3]: 67% | Acute Toxicity (MLD), minimum lethal dose [2]: > 300 mg/kg

CC(C)c1cccc(C(C)C)c1NC(=O)C1c2ccccc2COc2ccc(Cl)cc21 (stereo not drawn) [Compound 17, 2-Chloro-6,11-dihydro-N-(2,6-diisopropylphenyl)dibenz[b,e]-oxepin-11-carboxamide]
Inhibiting rate(%) of ACAT [1]: 94% | Acute Toxicity (MLD), minimum lethal dose [2]: > 300 mg/kg

CC(C)c1cccc(C(C)C)c1NC(=O)C1c2ccccc2COc2ccc(Br)cc21 (stereo not drawn) [Compound 18, 2-Bromo-6,11-dihydro-N-(2,6-diisopropylphenyl)dibenz[b,e]-oxepin-11-carboxamide]
Inhibiting rate(%) of ACAT [1]: 100% | Inhibition Rate (%) of total cholesterol level in serum [3]: 114% | Acute Toxicity (MLD), minimum lethal dose [2]: > 300 mg/kg

Cc1ccc2c(c1)C(C(=O)Nc1ccccc1C(C)C)c1ccccc1CO2 (stereo not drawn) [Compound 5, 6,11-Dihydro-N-(2-isopropylphenyl)-2-methyldibenz[b,e]-oxepin-11-carboxamide]
Inhibiting rate(%) of ACAT [1]: 56% | Acute Toxicity (MLD), minimum lethal dose [2]: > 300 mg/kg

COC(=O)c1ccc2c(c1)C(C(=O)Nc1c(C(C)C)cccc1C(C)C)c1ccccc1CO2 (stereo not drawn) [Compound 24, 6,11-Dihydro-N-(2,6-diisopropylphenyl)-2-methoxycarbonyl-dibenz[b,e]oxepin-11-carboxamide]
Inhibiting rate(%) of ACAT [1]: 90% | Acute Toxicity (MLD), minimum lethal dose [2]: > 300 mg/kg

Cc1cc(Br)c2c(c1)C(C(=O)Nc1c(C(C)C)cccc1C(C)C)c1ccccc1CO2 (stereo not drawn) [Compound 21, 4-Bromo-6,11-dihydro-N-(2,6-diisopropylphenyl) -2-methyldibenz[b,e]oxepin-11-carboxamide]
Inhibition Rate (%) of total cholesterol level in serum [3]: 67%

CC(C)c1cccc(C(C)C)c1NC(=O)C1c2ccccc2COc2c1cc(Br)cc2[N+](=O)[O-] (stereo not drawn) [Compound 53, 2-Bromo-6,11-dihydro-N-(2,6-diisopropylphenyl)-4-nitrodibenz[b,e]oxepin-11-carboxamide]
Inhibiting rate(%) of ACAT [1]: 100%

Cc1cc(Cl)c2c(c1C)C(C(=O)Nc1c(C(C)C)cccc1C(C)C)c1ccccc1CO2 (stereo not drawn) [Compound 59, 4-Chloro-6,11-dihydro-N-(2,6-diisopropylphenyl)-1,2-dimethyldibenz[b,e]oxepin-11-carboxamide]
Inhibiting rate(%) of ACAT [1]: 100%

Cc1cc(C)c2c(c1)OCc1ccccc1C2C(=O)Nc1c(C(C)C)cccc1C(C)C (stereo not drawn) [Compound 62, 6,11-Dihydro-N-(2,6-diisopropylphenyl)-1,3-dimethyldibenz-[b,e]oxepin-11-carboxamide]
Inhibiting rate(%) of ACAT [1]: 100%

CC(C)c1cccc(C(C)C)c1NC(=O)C1c2ccccc2COc2ccc(Br)cc21 (single isomer, unassigned) [Compound 61, (+) -2-Bromo-6,11-dihydro-N-(2,6-diisopropylphenyi)dibenz[b,e]oxepin-11-carboxamide]
Inhibiting rate(%) of ACAT [1]: 92%

CC(C)c1cccc(C(C)C)c1NC(=O)C1c2ccccc2COc2ccc(C#N)cc21 (stereo not drawn) [Compound 23, 2-Cyano-6,11-dihydro-N-(2,6-diisopropylphenyl)dibenz[b,e]-oxepin-11-carboxamide]
Inhibiting rate(%) of ACAT [1]: 69% | Acute Toxicity (MLD), minimum lethal dose [2]: > 300 mg/kg

Cc1ccc2c(c1)C(C(=O)Nc1c(C(C)C)cccc1C(C)C)c1ccccc1CC2 (stereo not drawn) [Compound 68, 10,11-Dihydro-N-(2,6-diisopropylphenyl)-3-methyl-5H-dibenz[a,d]cyclohepten-5-carboxamide]
Inhibiting rate(%) of ACAT [1]: 99%
